Test results from patent US20070042056A1, “Anti-stress agent” (priority 2003, published 2007).

How the values were obtained:
[1] = system: ddy male mice; assay: Enhancing activity on pentobarbital-induced sleep (duration of the sleeping time); format: in vivo
Description: (§1) As a test animal, ddy male mice (8-week age) were purchased from Shimizu Laboratory Supplies Co., Ltd., pre-bred for one week and used in the experiment. Each five of the mice were bred in a polyisopentene cage (manufactured by Clea Japan. Inc.) in a breeding chamber where the breeding conditions were set at room temperature of 23±2° C., humidity of 55±5%, ventilation frequency of 12 to 15/hour (all fresh air ventilation), and lighting hours of 12 hours/day (from 7 a.m. to 7 p.m.). The mice were fed solid feed CE-2 (Clea Japan Inc.) and were allowed free access to water.
1-Octen-3-ol dissolved in olive oil was orally administered to a mouse at a dose of 20 or 100 mg/kg. In each group, 8 mice were used. Thirty minutes later, pentobarbital dissolved in physiological saline was intraperitoneally administered at a dose of 50 mg/kg, and duration of the sleeping time was measured. The sleeping time was defined as the time period from the loss of righting reflex until its recovery.
The experimental results shown in FIG. 3 are expressed by average±standard error, and Student t-test was used in a significant difference test.
as §1, with “Co.,” for “Co., Ltd.,”, “one week,” for “one week”, “air ventilation)” for “air ventilation),”, “12 hours a day” for “12 hours/day”, “(Clea Japan.” for “(Clea Japan”
A mouse was made to aspirate cis-jasmone and methyl jasmonate diluted to 0.1% in an exposure box until the completion of the experiment. In each group, 5 mice were used. Thirty minutes after initiation of aspiration, pentobarbital dissolved in physiological saline was intraperitoneally administered at a dose of 50 mg/kg, and duration of the sleeping time was measured. […]

[2] = system: GABA receptor; assay: In vitro GABA receptor-activating activity, Xenopus oocyte expressing GABA receptor, voltage clamp; format: cell-based, rat; conditions: for GABA response to GABA receptor, relative value of inhibitory potential vs GABA only (set at 100%): GABA 5 μM
Description: As an experimental material, an oocyte of Xenopus was used. A rat-derived GABA receptor mRNA was injected into the nucleus of an oocyte to express GABA receptor on the surface of the egg. The oocyte was cultured in a normal Ringer's solution for frog (115 mM NaCl, 1 mM KCl, 1.8 mM CaCl2, 5 mM Tris, pH 7.2). Using the resulting oocyte, inhibitory potential of GABA (10 μM) and inhibitory potential of a mixed solution of GABA (10 μM) and the below mentioned sample were measured. Generation of inhibitory potential was measured by voltage clamp method using a voltage clamping amplifier (CEZ-1100; manufactured by NIHON KODEN CORPORATION).
As a sample, the following 9 kinds of aroma components contained in coffee or teas were used in a concentration of 2 μl/ml. Samples used are as follows: 2-methyl-3-buten-2-ol (expressed by 2-M3BOL in FIG. 1), 3-methyl-2-buten-1-ol (expressed by 3-M2BOL in FIG. 1), 1-penten-3-ol (expressed by 1-POL in FIG. 1), (E)-2-hexen-1-ol (expressed by HXOL in FIG. 1), 1-octen-3-ol (expressed by 1-OCOL in FIG. 1), sotolone (expressed by STOL in FIG. 1), 2,4-dimethylstyrene (expressed by 2,4-DMS in FIG. 1), benzothiazole (expressed by BZT in FIG. 1) and 2,3,5-trimethylphenol (expressed by 2,3,5-TEP in FIG. 1). The aforementioned samples used in the experiment were commercially available products. That is, sotolone manufactured by Ogawa & Co., Ltd. and other compounds manufactured by Tokyo Kasei Co., Ltd. were used.
As an index, enhancing activity of the sample on inhibitory potential induced by GABA was used. The results are expressed by % increase of the inhibitory potential when GABA and a sample were used in combination, relative to the inhibitory potential generated when only GABA (0.25 μM) was added (set at 100%).
Dose dependency of 1-octen-3-ol which had been recognized to have a strong activity in Example 1 was studied. The experimental procedures were entirely the same as those of Example 1. The concentration of GABA was 5 μM, and the concentration of 1-octen-3-ol was 0.3 to 1 mM. […] The results shown in FIG. 2 are expressed by the relative value of the inhibitory potential when GABA and 1-octen-3-ol were used in combination, compared to the inhibitory potential generated when only GABA (5 μM) was added (set at 100%).
As an experimental material, an oocyte of Xenopus was used. A rat-derived GABA receptor mRNA was injected into the nucleus of an oocyte to express GABA receptor on the surface of an egg. The oocyte was cultured in a normal Ringer's solution for frog (115 mM NaCl, 1 mM KCl, 1.8 mM CaCl2, 5 mM Tris, pH 7.2). Generation of the inhibitory potential induced by GABA (0.25 μM) was measured by voltage clamp method using a voltage clamping amplifier (CEZ-1100; manufactured by Nihon Koden corporation).
As samples, the below-mentioned 4 kinds of aroma components of oolong tea were used in a concentration of 0.5 mM. The samples used are as follows: cis-jasmone, methyl jasmonate, jasmine lactone and linalool oxide.
Dose dependency of cis-jasmone and methyl jasmonate which had been recognized to have a strong activity in Example 4 was studied. The experimental procedures were entirely the same as those of Example 4. The concentration of GABA was 5 μM, and the concentrations of cis-jasmone and methyl jasmonate were 0.2 to 1 mM. […] The results shown in FIG. 5 are expressed by the relative value of the inhibitory potential when GABA and cis-jasmone and methyl jasmonate were used in combination compared to the inhibitory potential generated when only GABA (5 μM) was added (set at 100%).

[3] = system: rat; conditions: cited from earlier work; for development of gastric ulcer: cold-restraint stress (4° C., 2 hours), intraventricular administration
[4] = 1998-1999 Scientific Research Subsidy Research Outcome Report; cited from earlier work
[5] = system: GABA receptor; conditions: Biosci. Biotechnol. Biochem., 63, 743-748, 1999; cited from earlier work
[6] = Example 6, FIG. 6, aspiration of sample diluted to 0.1% in exposure box, pentobarbital 50 mg/kg i.p. after 30 min
[7] = Example 4, FIG. 4, sample 0.5 mM, GABA 0.25 μM
[8] = Example 5, FIG. 5, sample 0.2 to 1 mM

In the case of `C=CC(O)CCCCC` (centres unmarked) [1-octen-3-ol], the “duration of the sleeping time induced by pentobarbital” value (“duration of the sleeping time induced” below) ([1]; Example 3, FIG. 3, orally 20 or 100 mg/kg in olive oil, 30 min before pentobarbital 50 mg/kg i.p.) is reported as “extended duration of the sleeping time induced by pentobarbital in a dose dependent manner”, the “enhancing activity of the sample on inhibitory potential induced by GABA” value ([2]; Example 1, FIG. 1, sample 2 μl/ml, GABA 10 μM / 0.25 μM) is reported as “strong activity to enhance the response” and the “GABA response to GABA receptor, relative value of inhibitory potential vs GABA only (set at 100%)” value ([2]; Example 2, FIG. 2, 1-octen-3-ol 0.3 to 1 mM) is reported as “up to 400%”.

In the case of `NCCCC(=O)O` [GABA], the “development of gastric ulcer” value [3] is listed as “suppressed in a dose dependent manner”.

For `NCc1cc(=O)[nH]o1` [Muscimol], the “development of gastric ulcer” value [3] is given as “suppressed in a dose dependent manner”.

For `CN1CCc2cc3c(cc2[C@H]1[C@@H]1OC(=O)c2c1ccc1c2OCO1)OCO3` [bicuculine], the “effect on the inhibitory effect of GABA on stress ulceration” value ([3]; cold-restraint stress, bicuculine 40 μg) is given as “diminishes the inhibitory effect of GABA on stress ulceration”.

With `CC/C=C\CC1=C(C)CCC1=O` [cis-jasmone] the “duration of the sleeping time induced” value [1, 6] was “significantly extended duration of the sleeping time”, the “enhancing activity of the sample on inhibitory potential induced by GABA” value [2, 7] was “activity to enhance the response” and the “GABA response to GABA receptor, relative value of inhibitory potential vs GABA only (set at 100%)” value [2, 8] was “up to 200%”.

For `CCCCCCO` [hexanol], the stress relaxing activity [4] is given as “stress relaxing activity” and the GABA receptor-activating activity [5] is given as “has GABA receptor-activating activity”.

For `CC/C=C\CC1C(=O)CCC1CC(=O)OC` (centres unmarked) [methyl jasmonate], the “duration of the sleeping time induced” value [1, 6] was “significantly extended duration of the sleeping time”, the “enhancing activity of the sample on inhibitory potential induced by GABA” value [2, 7] was “activity to enhance the response” and the “GABA response to GABA receptor, relative value of inhibitory potential vs GABA only (set at 100%)” value [2, 8] was at most 300%.
